Results published in BigSolDB 2.1.

## CCCCCCCCCCCC[N+](C)(C)CCOc1ccccc1.[Br-]
In DMAc, 283.15 K
  solubility (mole fraction): 0.0168
In DMAc, 288.15 K
  solubility (mole fraction): 0.0216
In DMAc, 293.15 K
  solubility (mole fraction): 0.0306
In DMAc, 298.15 K
  solubility (mole fraction): 0.0416
In DMAc, 303.15 K
  solubility (mole fraction): 0.0492
In DMAc, 308.15 K
  solubility (mole fraction): 0.0659
In DMAc, 313.15 K
  solubility (mole fraction): 0.0786
In DMAc, 318.15 K
  solubility (mole fraction): 0.105
In DMAc, 323.15 K
  solubility (mole fraction): 0.121
In DMF, 283.15 K
  solubility (mole fraction): 0.0238
In DMF, 288.15 K
  solubility (mole fraction): 0.0292
In DMF, 293.15 K
  solubility (mole fraction): 0.039
In DMF, 298.15 K
  solubility (mole fraction): 0.0467
In DMF, 303.15 K
  solubility (mole fraction): 0.0609
In DMF, 308.15 K
  solubility (mole fraction): 0.0714
In DMF, 313.15 K
  solubility (mole fraction): 0.0861
In DMF, 318.15 K
  solubility (mole fraction): 0.115
In DMF, 323.15 K
  solubility (mole fraction): 0.132
In DMSO, 293.15 K
  solubility (mole fraction): 0.037
In DMSO, 298.15 K
  solubility (mole fraction): 0.045
In DMSO, 303.15 K
  solubility (mole fraction): 0.0551
In DMSO, 308.15 K
  solubility (mole fraction): 0.0668
In DMSO, 313.15 K
  solubility (mole fraction): 0.0826
In DMSO, 318.15 K
  solubility (mole fraction): 0.103
In DMSO, 323.15 K
  solubility (mole fraction): 0.124
In NMP, 283.15 K
  solubility (mole fraction): 0.0215
In NMP, 288.15 K
  solubility (mole fraction): 0.0284
In NMP, 293.15 K
  solubility (mole fraction): 0.042
In NMP, 298.15 K
  solubility (mole fraction): 0.0531
In NMP, 303.15 K
  solubility (mole fraction): 0.0702
In NMP, 308.15 K
  solubility (mole fraction): 0.0854
In NMP, 313.15 K
  solubility (mole fraction): 0.108
In NMP, 318.15 K
  solubility (mole fraction): 0.137
In NMP, 323.15 K
  solubility (mole fraction): 0.169
In acetonitrile, 283.15 K
  solubility (mole fraction): 0.00445
In acetonitrile, 288.15 K
  solubility (mole fraction): 0.00562
In acetonitrile, 293.15 K
  solubility (mole fraction): 0.00743
In acetonitrile, 298.15 K
  solubility (mole fraction): 0.00991
In acetonitrile, 303.15 K
  solubility (mole fraction): 0.0135
In acetonitrile, 308.15 K
  solubility (mole fraction): 0.0188
In acetonitrile, 313.15 K
  solubility (mole fraction): 0.0277
In acetonitrile, 318.15 K
  solubility (mole fraction): 0.0415
In acetonitrile, 323.15 K
  solubility (mole fraction): 0.0625
In ethanol, 283.15 K
  solubility (mole fraction): 0.0832
In ethanol, 288.15 K
  solubility (mole fraction): 0.107
In ethanol, 293.15 K
  solubility (mole fraction): 0.13
In ethanol, 298.15 K
  solubility (mole fraction): 0.157
In ethanol, 303.15 K
  solubility (mole fraction): 0.179
In ethanol, 308.15 K
  solubility (mole fraction): 0.204
In ethanol, 313.15 K
  solubility (mole fraction): 0.227
In ethanol, 318.15 K
  solubility (mole fraction): 0.251
In ethanol, 323.15 K
  solubility (mole fraction): 0.275
In isobutanol, 288.15 K
  solubility (mole fraction): 0.092
In isobutanol, 293.15 K
  solubility (mole fraction): 0.118
In isobutanol, 298.15 K
  solubility (mole fraction): 0.145
In isobutanol, 303.15 K
  solubility (mole fraction): 0.175
In isobutanol, 308.15 K
  solubility (mole fraction): 0.196
In isobutanol, 313.15 K
  solubility (mole fraction): 0.224
In isobutanol, 318.15 K
  solubility (mole fraction): 0.248
In isobutanol, 323.15 K
  solubility (mole fraction): 0.287
In isopropanol, 283.15 K
  solubility (mole fraction): 0.0234
In isopropanol, 288.15 K
  solubility (mole fraction): 0.043
In isopropanol, 293.15 K
  solubility (mole fraction): 0.07
In isopropanol, 298.15 K
  solubility (mole fraction): 0.105
In isopropanol, 303.15 K
  solubility (mole fraction): 0.139
In isopropanol, 308.15 K
  solubility (mole fraction): 0.17
In isopropanol, 313.15 K
  solubility (mole fraction): 0.199
In isopropanol, 318.15 K
  solubility (mole fraction): 0.228
In isopropanol, 323.15 K
  solubility (mole fraction): 0.258
In n-butanol, 283.15 K
  solubility (mole fraction): 0.0833
In n-butanol, 288.15 K
  solubility (mole fraction): 0.108
In n-butanol, 293.15 K
  solubility (mole fraction): 0.134
In n-butanol, 298.15 K
  solubility (mole fraction): 0.157
In n-butanol, 303.15 K
  solubility (mole fraction): 0.181
In n-butanol, 308.15 K
  solubility (mole fraction): 0.224
In n-butanol, 313.15 K
  solubility (mole fraction): 0.263
In n-butanol, 318.15 K
  solubility (mole fraction): 0.306
In n-butanol, 323.15 K
  solubility (mole fraction): 0.346
In n-pentanol, 283.15 K
  solubility (mole fraction): 0.0801
In n-pentanol, 288.15 K
  solubility (mole fraction): 0.108
In n-pentanol, 293.15 K
  solubility (mole fraction): 0.13
In n-pentanol, 298.15 K
  solubility (mole fraction): 0.164
In n-pentanol, 303.15 K
  solubility (mole fraction): 0.192
In n-pentanol, 308.15 K
  solubility (mole fraction): 0.232
In n-pentanol, 313.15 K
  solubility (mole fraction): 0.272
In n-pentanol, 318.15 K
  solubility (mole fraction): 0.329
In n-pentanol, 323.15 K
  solubility (mole fraction): 0.373
In n-propanol, 283.15 K
  solubility (mole fraction): 0.0834
In n-propanol, 288.15 K
  solubility (mole fraction): 0.107
In n-propanol, 293.15 K
  solubility (mole fraction): 0.131
In n-propanol, 298.15 K
  solubility (mole fraction): 0.157
In n-propanol, 303.15 K
  solubility (mole fraction): 0.181
In n-propanol, 308.15 K
  solubility (mole fraction): 0.211
In n-propanol, 313.15 K
  solubility (mole fraction): 0.238
In n-propanol, 318.15 K
  solubility (mole fraction): 0.263
In n-propanol, 323.15 K
  solubility (mole fraction): 0.287
In tert-butanol, 298.15 K
  solubility (mole fraction): 0.0866
In tert-butanol, 303.15 K
  solubility (mole fraction): 0.127
In tert-butanol, 308.15 K
  solubility (mole fraction): 0.165
In tert-butanol, 313.15 K
  solubility (mole fraction): 0.198
In tert-butanol, 318.15 K
  solubility (mole fraction): 0.241
In tert-butanol, 323.15 K
  solubility (mole fraction): 0.273
